The source of these data is patent publication US12215123B2, “Cordycepin-based derivatized compound with anti-tumor effect” (NANJING TECH UNIVERSITY, priority 2022, dated 2025).

Like-named read-outs stand apart in the source and are kept apart here.

A word on the IC50: it is the concentration that inhibits the measured activity by half.

Assay [1] deals with gastric cancer cell line BGC-823. Briefly: MTT proliferation, gastric cancer cell line BGC-823. It counts as cell-based. Particulars: Homo sapiens, read-out: IC50 (μM) in gastric cancer cells, BGC-823. In outline: (§1)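 Tumour cells in exponential growth were trypsinised, seeded at 2 to 4×10^4 cells/mL, cultured 24 hours, then exposed to compounds for 72 hours. MTT was added for 4 hours, formazan dissolved in DMSO and absorbance read at 570 nm. IC50 came from an S curve of inhibition rate against concentration.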

The next assay concerns B16-F10 melanoma cells. The experiment in a line: Mouse transplanted melanoma model. It counts as in vivo, C57BL/6j nude mice. Particulars: B16-F10 transplanted mice, intragastric 500 ug/time/animal every other day, 24 days; blank 1760 mm^3. The method, then:
(§2) The feeding of the mouse model in the drug evaluation follows that: mice are fed and treated in a laminar flow cabinet, with 5 nude mice in each cage, drinking water and feedstuffs are added once every 3 days, and paddings are replaced once a week; a number of mice kept in each cage is no more than 5, the mice in separate cages are kept in groups as far as possible, and the mice should not be kept in a single cage; the animal management must conform to the relevant national standards on animal feeding management, and the behavioral needs of animals should be concerned at the same time to avoid unnecessary stress; the normal physiological and behavioral needs of animals, such as defecation, urination, constant body temperature maintenance, normal activities, posture adjustment and reproduction are met; good ventilation and dry animals are kept; the animals can access to drinking water and food at will, and supplementation, replacement and cleaning operations are easily carried out; a solid and safe environment is provided to avoid accidents of animals, such as escaping or limb trapping in a gap; the animals are avoided from being damaged by sharp edges or protrusions; and the animals are not disturbed during observation.
A mouse transplanted melanoma model was established and a drug was evaluated. 2.5×10^5 B16-F10 melanoma cells were suspended in 100 μL of PBS to be inoculated into an outer side of thigh of left lower limb of C57BL/6j nude mice. One week later, when the transplanted tumor reached about 100 mm^3, the mice were randomly divided into ten groups, with 10 mice in each group, comprising a blank control group, a cordycepin group, a compound 13 group, a compound 14 group, a compound 17 group, a compound 19 group, a compound 22 group, a compound 26 group, a compound 29 group and a compound 34 group respectively. The blank control group was intragastrically administrated with a nutritional agent such as a corn steep liquor and DMSO as a solvent control every day for 24 consecutive days, and the compound groups were intragastrically administrated with corresponding compounds (500 ug/time/animal in all cases) every other day for 24 consecutive days. […] The mice were killed after the experiment, blood and corresponding tissue samples were collected, tumor bodies were immediately photographed and weighed, and some tumor tissues were fixed in a formalin solution to be further detected. Two vertical diameters (length and width) of the transplanted tumor were measured with a caliper every two days to calculate a size of the transplanted tumor, and a tumor value was calculated according to a formula: tumor volume (mm^3)=[…].

The test system of assay [2] is gastric cancer cell line AGS. Briefly: MTT proliferation, gastric cancer cell line AGS. It counts as cell-based. Particulars: read-out: IC50 (μM) in gastric cancer cells, AGS. In outline:
as §1

For the next assay, the system named is MC-38 colon cancer cells. The experiment in a line: Mouse transplanted colon cancer model. It counts as in vivo, C57BL/6j nude mice. Conditions: MC-38 transplanted mice, 28 days, 500 ug/time/animal intragastric (compound daily, antibody every 4 days); control 1,300 mm^3. The method, then: as §2
A mouse transplanted colon cancer model was established and a drug was evaluated. […]

Assay [3] concerns small cell lung cancer cell line H69. Briefly: MTT proliferation, small cell lung cancer cell line H69. It counts as cell-based. Conditions: read-out: IC50 (μM) of compounds in small cell lung cancer cells, H69. The procedure, abridged:
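MTT assay: cells seeded at 2 to 4×10^4 cells/mL, grown 24 h, then exposed to compound for 72 h. MTT added for 4 h, formazan dissolved in DMSO and absorbance read at 570 nm; IC50 taken from the S-shaped concentration-inhibition curve.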

With `Nc1ncnc2c1ncn2[C@@H]1O[C@H](CO)C[C@H]1O` [Cordycepin, 3′-deoxyadenosine], the IC50 was determined as 235 µM in assay [1] (MTT, 72 hours, BGC-823); 372 µM in assay [2] (MTT, 72 hours, AGS); 63.1 µM in assay [3] (MTT, 72 hours, H69). In the assay on B16-F10 melanoma cells, this compound returned a tumor volume of 600 mm^3. The tumor size in the assay with MC-38 colon cancer cells was 730 mm^3.

On to `CC(C)OC(=O)C(C)NP(=O)(COC[C@@H]1CC(O)[C@H](n2cnc3c(NC(=O)c4ccncc4)ncnc32)O1)Oc1ccccc1` (some centres unmarked) [Compound 24, isopropyl((((4-hydroxy-5-(6-(isonicotinamide)-9H-purin-9-yl)tetrahydrofuran-2-yl)methoxy)methyl)(phenoxy)phosphoryl)alanine ester], for which the IC50 turned out to be 0.09 µM in assay [1] (BGC-823, 72 h); 0.13 µM in assay [2] (72 h); 25.5 µM in assay [3] (72 h).
